Results reported in patent publication US20130324530A1 (Novartis AG, priority 2010, published 2013).

Biological target: Cdk9/cyclinT1 (Homo sapiens, UniProt P50750)
Sequence (P50750 whole entry): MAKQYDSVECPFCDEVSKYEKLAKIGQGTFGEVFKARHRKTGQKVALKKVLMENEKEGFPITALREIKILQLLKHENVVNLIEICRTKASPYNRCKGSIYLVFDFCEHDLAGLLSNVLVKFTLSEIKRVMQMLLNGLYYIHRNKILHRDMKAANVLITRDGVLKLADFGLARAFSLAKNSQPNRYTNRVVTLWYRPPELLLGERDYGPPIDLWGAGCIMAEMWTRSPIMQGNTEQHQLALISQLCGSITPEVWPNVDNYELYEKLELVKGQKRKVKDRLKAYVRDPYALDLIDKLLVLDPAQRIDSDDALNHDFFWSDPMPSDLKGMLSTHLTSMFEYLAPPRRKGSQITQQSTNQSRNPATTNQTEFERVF
Sequence (O60563 whole entry partner): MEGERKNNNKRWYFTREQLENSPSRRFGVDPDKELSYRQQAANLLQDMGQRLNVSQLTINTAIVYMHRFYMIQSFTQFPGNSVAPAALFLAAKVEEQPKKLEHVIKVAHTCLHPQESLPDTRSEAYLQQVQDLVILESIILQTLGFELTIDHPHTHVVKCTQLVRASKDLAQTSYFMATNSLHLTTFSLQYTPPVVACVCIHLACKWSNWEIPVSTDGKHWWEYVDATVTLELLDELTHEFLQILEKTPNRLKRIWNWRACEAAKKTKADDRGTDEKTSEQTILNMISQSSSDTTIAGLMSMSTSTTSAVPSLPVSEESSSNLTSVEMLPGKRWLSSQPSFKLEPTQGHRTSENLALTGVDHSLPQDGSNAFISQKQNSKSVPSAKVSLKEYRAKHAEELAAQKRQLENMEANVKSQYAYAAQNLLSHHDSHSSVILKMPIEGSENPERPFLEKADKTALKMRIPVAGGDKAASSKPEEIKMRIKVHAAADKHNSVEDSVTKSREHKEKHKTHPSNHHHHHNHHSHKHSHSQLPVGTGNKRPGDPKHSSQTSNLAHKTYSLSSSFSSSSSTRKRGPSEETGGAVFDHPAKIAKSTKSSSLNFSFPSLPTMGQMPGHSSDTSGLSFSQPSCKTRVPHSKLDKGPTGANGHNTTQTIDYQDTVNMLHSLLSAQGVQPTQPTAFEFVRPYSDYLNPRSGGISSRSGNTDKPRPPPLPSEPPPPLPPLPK
Assay: Cdk9/CyclinT1 IMAP assay
Conditions: not given
With N[C@H]1CC[C@H](Nc2cc(-c3cc(NCC4CCOCC4)cnc3Cl)c(Cl)cn2)CC1 [Compound 79] the IC50 was < 8 nM.
In the case of OC[C@H]1CC[C@H](Nc2cc(-c3cnc(Cl)c(NCC4CCOCC4)c3)c(Cl)cn2)CC1 [Compound 80], the IC50 is reported as < 8 nM.
With Clc1cnc(N[C@H]2CC[C@H](N3CCCC3)CC2)cc1-c1cnc(Cl)c(NCC2CCOCC2)c1 [Compound 81] the IC50 was 45 nM.
With COCCN[C@H]1CC[C@H](Nc2cc(-c3cncc(NCc4cccc(F)c4)c3)c(Cl)cn2)CC1 [Compound 82] the IC50 was < 8 nM.
For NC[C@H]1CC[C@H](Nc2cc(-c3cnc(Cl)c(NCC4CCOCC4)c3)c(Cl)cn2)CC1 [Compound 83], the IC50 was < 8 nM.
In the case of Fc1cccc(CNc2cncc(-c3cc(N[C@H]4CC[C@H](N5CCCC5)CC4)ncc3Cl)c2)c1 [Compound 84], the IC50 is reported as < 8 nM.
In the case of COc1ncc(-c2cc(N[C@H]3CC[C@H](N)CC3)ncc2Cl)cc1NCC1CCOCC1 [Compound 85], the IC50 is reported as 96 nM.
With O[C@H]1CC[C@H](Nc2cc(-c3cnc(Cl)c(NCC4CCOCC4)c3)c(Cl)cn2)CC1 [Compound 86] the IC50 was < 8 nM.
With N[C@H]1CC[C@H](Nc2cc(-c3cnc(O)c(NCC4CCOCC4)c3)c(Cl)cn2)CC1 [Compound 87, 2′-(trans-4-aminocyclohexylamino)-5′-chloro-5-((tetrahydro-2H-pyran-4-yl)methyl)amino-3,4′-bipyridin-6-ol] the IC50 was 420 nM.
For N[C@H]1CC[C@H](Nc2cc(-c3cncc(OCc4cccc(F)c4)c3)c(Cl)cn2)CC1 [Compound 88], the IC50 was < 1 nM.
For NC[C@H]1CC[C@H](Nc2cc(-c3cncc(OCc4cccc(F)c4)c3)c(Cl)cn2)CC1 [Compound 89], the IC50 was < 1 nM.
Compound O[C@H]1CCCC[C@@H]1N[C@H]1CC[C@H](Nc2cc(-c3cc(NCC4CCOCC4)cnc3Cl)c(Cl)cn2)CC1 [Compound 90] has an IC50 of 2.8 nM.
For O[C@H]1CCCC[C@@H]1N[C@H]1CC[C@H](Nc2cc(-c3cnc(Cl)c(NCC4CCOCC4)c3)c(Cl)cn2)CC1 [Compound 91], the IC50 was 2.7 nM.
O[C@H]1CCCC[C@@H]1N[C@H]1CC[C@H](Nc2cc(-c3cnc(F)c(NCC4CCOCC4)c3)c(Cl)cn2)CC1 [Compound 92] showed an IC50 of 1.8 nM.

Tested on: neointima formation
Assay: not given
Conditions: rats; cited from earlier work
For COc1ccc(CNc2nc(N(CCO)CCO)nc3c2ncn3C(C)C)cc1 [CVT-313], the “inhibition of neointima formation” value is listed as “greater than 80%”.
